Data set [1] is described as follows: Half life in mouse at 10 mg/kg, po. It is filed as ADME, organism-based. To be noted: in vivo.
The target of data set [2] is Activin receptor type-1 (Homo sapiens) (UniProt Q04771). Nature of the data set: Inhibition of recombinant human ALK2 (147 to end residues) at 1 uM using casein as substrate after 40 mins in presence of [gamma-33P]ATP by scintillation counting method.
Data set [3] addresses Serine/threonine-protein kinase BRSK1 (Homo sapiens) (UniProt Q8TDC3). Briefly: Inhibition of recombinant human BrSK1 (2 to end residues) at 1 uM using KKKVSRSGLYRSPSMPENLNRPR as substrate after 40 mins in presence of [gamma-33P]ATP by scintillation counting method.
In data set [4] the target is Calcium/calmodulin-dependent protein kinase type II subunit gamma (Homo sapiens) (UniProt Q13555). Nature of the data set: Inhibition of recombinant human CAMK2gamma (1 to 330 residues) at 1 uM using […] after 40 mins in presence of [gamma-33P]ATP by scintillation counting method.
Data set [5] deals with Calcium/calmodulin-dependent protein kinase type 1B (Homo sapiens) (UniProt Q6P2M8). Nature of the data set: Inhibition of recombinant full-length human CAMK1beta at 1 uM using KKLRRTLSFAEPG as substrate after 40 mins in presence of [gamma-33P]ATP by scintillation counting method.
Chain of Calcium/calmodulin-dependent protein kinase type 1B (Homo sapiens) (Q6P2M8 whole entry): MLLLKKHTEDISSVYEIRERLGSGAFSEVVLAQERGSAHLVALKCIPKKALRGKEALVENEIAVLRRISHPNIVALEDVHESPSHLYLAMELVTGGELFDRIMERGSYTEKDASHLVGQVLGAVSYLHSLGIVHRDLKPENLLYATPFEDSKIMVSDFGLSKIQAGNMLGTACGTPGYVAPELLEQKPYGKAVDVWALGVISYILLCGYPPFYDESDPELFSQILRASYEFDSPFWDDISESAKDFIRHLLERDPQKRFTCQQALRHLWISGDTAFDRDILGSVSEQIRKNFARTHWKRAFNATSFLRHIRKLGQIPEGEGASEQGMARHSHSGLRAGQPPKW
Data set [6] addresses CDK6/cyclin D3 (Homo sapiens) (UniProt P30281+Q00534). Nature of the data set: Inhibition of recombinant full-length human CDK6/Cyclin D3 at 1 uM using histone H1 as substrate after 40 mins in presence of [gamma-33P]ATP by scintillation counting method. It is filed as protein-complex assay.
Data set [7] concerns Serine/threonine-protein kinase Chk2 (Homo sapiens), O96017 [R145W]. Briefly: Inhibition of recombinant human CHK2 R145W mutant (5 to end residues) at 1 uM using KKKVSRSGLYRSPSMPENLNRPR as substrate after 40 mins in presence of [gamma-33P]ATP by scintillation counting method.
Data set [8] concerns Mast/stem cell growth factor receptor Kit (Homo sapiens), P10721 [D816V]. Briefly: Inhibition of recombinant human cKit D816V mutant (544 to end residues) at 1 uM using poly(Glu,Tyr) 4:1 as substrate after 40 mins in presence of [gamma-33P]ATP by scintillation counting method.
Chain of Mast/stem cell growth factor receptor Kit (Homo sapiens), P10721 [D816V] (P10721 whole entry D816V): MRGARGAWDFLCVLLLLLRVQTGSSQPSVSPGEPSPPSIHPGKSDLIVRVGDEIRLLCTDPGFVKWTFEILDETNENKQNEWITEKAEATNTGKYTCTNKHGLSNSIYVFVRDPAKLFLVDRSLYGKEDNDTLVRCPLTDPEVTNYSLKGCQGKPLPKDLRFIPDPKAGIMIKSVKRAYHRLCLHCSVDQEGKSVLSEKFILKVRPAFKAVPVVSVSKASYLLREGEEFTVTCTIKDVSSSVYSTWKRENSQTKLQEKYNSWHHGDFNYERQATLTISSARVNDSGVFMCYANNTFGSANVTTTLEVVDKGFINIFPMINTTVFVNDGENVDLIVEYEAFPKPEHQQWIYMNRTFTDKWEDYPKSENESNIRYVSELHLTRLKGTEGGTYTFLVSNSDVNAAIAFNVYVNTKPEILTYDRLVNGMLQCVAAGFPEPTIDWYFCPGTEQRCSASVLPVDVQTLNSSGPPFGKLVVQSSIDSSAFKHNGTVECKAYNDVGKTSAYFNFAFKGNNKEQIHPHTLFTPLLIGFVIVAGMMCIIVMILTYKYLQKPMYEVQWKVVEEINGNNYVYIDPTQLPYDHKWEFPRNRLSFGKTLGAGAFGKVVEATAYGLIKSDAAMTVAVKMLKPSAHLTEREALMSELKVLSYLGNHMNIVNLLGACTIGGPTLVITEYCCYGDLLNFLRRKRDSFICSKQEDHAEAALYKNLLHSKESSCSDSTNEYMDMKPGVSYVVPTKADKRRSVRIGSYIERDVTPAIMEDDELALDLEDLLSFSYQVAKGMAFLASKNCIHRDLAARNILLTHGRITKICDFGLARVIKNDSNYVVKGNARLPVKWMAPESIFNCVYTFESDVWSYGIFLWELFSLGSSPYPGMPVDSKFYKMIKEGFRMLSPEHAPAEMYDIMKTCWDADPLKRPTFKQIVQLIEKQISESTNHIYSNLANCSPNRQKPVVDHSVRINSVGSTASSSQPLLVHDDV
The target in data set [9] is Dual specificity tyrosine-phosphorylation-regulated kinase 1A (Homo sapiens) (UniProt Q13627). Briefly: Inhibition of recombinant full-length human DYRK1A at 1 uM using RRRFRPASPLRGPPK as substrate after 40 mins in presence of [gamma-33P]ATP by scintillation counting method.
Data set [10] has as its target Dual specificity tyrosine-phosphorylation-regulated kinase 2 (Homo sapiens) (UniProt Q92630). Briefly: Inhibition of recombinant full-length human DYRK2 at 1 uM using casein as substrate after 40 mins in presence of [gamma-33P]ATP by scintillation counting method.
The target of data set [11] is Ephrin type-A receptor 3 (Homo sapiens) (UniProt P29320). Briefly: Inhibition of recombinant human EPHA3 (578 to end residues) at 1 uM using poly(Glu,Tyr) 4:1 as substrate after 40 mins in presence of [gamma-33P]ATP by scintillation counting method.
Data set [12] addresses Receptor tyrosine-protein kinase erbB-2 (Homo sapiens) (UniProt P04626). Briefly: Inhibition of recombinant human ErbB2 (676 to end residues) at 1 uM using poly(Glu,Tyr) 4:1 as substrate after 40 mins in presence of [gamma-33P]ATP by scintillation counting method.
In data set [13] the target is G protein-coupled receptor kinase 3 (Homo sapiens) (UniProt P35626). Briefly: Inhibition of recombinant full-length human GRK3 at 1 uM using casein as substrate after 40 mins in presence of [gamma-33P]ATP by scintillation counting method.
Chain of G protein-coupled receptor kinase 3 (Homo sapiens) (P35626 whole entry): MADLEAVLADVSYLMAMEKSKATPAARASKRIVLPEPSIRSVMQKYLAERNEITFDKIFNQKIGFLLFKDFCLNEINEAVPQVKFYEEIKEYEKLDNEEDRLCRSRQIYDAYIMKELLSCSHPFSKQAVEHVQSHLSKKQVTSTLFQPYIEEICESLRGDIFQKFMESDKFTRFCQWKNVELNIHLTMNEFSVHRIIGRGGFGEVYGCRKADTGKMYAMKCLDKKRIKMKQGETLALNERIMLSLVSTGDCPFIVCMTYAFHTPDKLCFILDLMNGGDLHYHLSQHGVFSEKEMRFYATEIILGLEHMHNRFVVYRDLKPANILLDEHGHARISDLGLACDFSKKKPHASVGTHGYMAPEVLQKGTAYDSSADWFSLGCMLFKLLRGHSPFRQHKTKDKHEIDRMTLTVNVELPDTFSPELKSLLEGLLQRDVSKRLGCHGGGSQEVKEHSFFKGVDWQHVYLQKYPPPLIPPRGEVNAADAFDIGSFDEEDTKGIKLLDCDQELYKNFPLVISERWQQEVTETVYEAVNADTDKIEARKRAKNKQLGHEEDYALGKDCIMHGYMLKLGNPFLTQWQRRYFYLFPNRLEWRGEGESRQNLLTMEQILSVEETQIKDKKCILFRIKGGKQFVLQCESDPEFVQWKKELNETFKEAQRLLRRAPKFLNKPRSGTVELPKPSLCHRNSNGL
Data set [14] has as its target Homeodomain-interacting protein kinase 4 (Homo sapiens) (UniProt Q8NE63). Nature of the data set: Inhibition of recombinant full-length human HIPK4 at 1 uM using RRRFRPASPLRGPPK as substrate after 40 mins in presence of [gamma-33P]ATP by scintillation counting method.
Data set [15] concerns the target Insulin receptor (Homo sapiens) (UniProt P06213). Nature of the data set: Inhibition of recombinant human IR (1005 to 1310 residues) at 1 uM using KKSRGDYMTMQIG as substrate after 40 mins in presence of [gamma-33P]ATP by scintillation counting method.
Data set [16] deals with Serine/threonine-protein kinase Nek2 (Homo sapiens) (UniProt P51955). Briefly: Inhibition of recombinant full-length human NEK2 at 1 uM using myelin basic protein as substrate after 40 mins in presence of [gamma-33P]ATP by scintillation counting method.
Data set [17] concerns the target Serine/threonine-protein kinase PAK 3 (Homo sapiens) (UniProt O75914). Briefly: Inhibition of recombinant full-length human PAK3 at 1 uM using RRRLSFAEPG as substrate after 40 mins in presence of [gamma-33P]ATP by scintillation counting method.
Data set [18] deals with Platelet-derived growth factor receptor alpha (Homo sapiens), P16234 [V561D]. Nature of the data set: Inhibition of recombinant human PDGFRalpha V561D mutant (550 to end residues) at 1 uM using GGMEDIYFEFMGGKKK as substrate after 40 mins in presence of [gamma-33P]ATP by scintillation counting method.
Data set [19] concerns RAC-gamma serine/threonine-protein kinase (Homo sapiens), Q9Y243 [S472D]. Nature of the data set: Inhibition of recombinant human PKBgamma S472D mutant (117 to end residues) at 1 uM using GRPRTSSFAEGKK as substrate after 40 mins in presence of [gamma-33P]ATP by scintillation counting method.
Chain of RAC-gamma serine/threonine-protein kinase (Homo sapiens), Q9Y243 [S472D] (Q9Y243 whole entry S472D): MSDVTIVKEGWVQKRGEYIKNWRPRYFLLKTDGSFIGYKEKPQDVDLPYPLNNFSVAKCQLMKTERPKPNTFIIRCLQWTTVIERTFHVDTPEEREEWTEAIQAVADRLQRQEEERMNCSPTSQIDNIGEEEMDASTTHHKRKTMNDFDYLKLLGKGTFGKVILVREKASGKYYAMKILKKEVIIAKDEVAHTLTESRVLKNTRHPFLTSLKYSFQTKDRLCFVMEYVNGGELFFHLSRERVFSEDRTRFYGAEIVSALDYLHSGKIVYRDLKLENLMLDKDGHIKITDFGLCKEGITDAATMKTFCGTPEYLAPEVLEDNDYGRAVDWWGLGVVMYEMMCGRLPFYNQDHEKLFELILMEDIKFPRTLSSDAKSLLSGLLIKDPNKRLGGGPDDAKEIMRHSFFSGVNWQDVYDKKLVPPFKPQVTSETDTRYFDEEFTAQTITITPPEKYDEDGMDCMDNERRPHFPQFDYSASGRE
The target of data set [20] is Protein kinase C iota type (Homo sapiens) (UniProt P41743). Nature of the data set: Inhibition of recombinant full-length human PKCiota at 1 uM using ERMRPRKRQGSVRRRV as substrate after 40 mins in presence of [gamma-33P]ATP by scintillation counting method.
Chain of Protein kinase C iota type (Homo sapiens) (P41743 whole entry): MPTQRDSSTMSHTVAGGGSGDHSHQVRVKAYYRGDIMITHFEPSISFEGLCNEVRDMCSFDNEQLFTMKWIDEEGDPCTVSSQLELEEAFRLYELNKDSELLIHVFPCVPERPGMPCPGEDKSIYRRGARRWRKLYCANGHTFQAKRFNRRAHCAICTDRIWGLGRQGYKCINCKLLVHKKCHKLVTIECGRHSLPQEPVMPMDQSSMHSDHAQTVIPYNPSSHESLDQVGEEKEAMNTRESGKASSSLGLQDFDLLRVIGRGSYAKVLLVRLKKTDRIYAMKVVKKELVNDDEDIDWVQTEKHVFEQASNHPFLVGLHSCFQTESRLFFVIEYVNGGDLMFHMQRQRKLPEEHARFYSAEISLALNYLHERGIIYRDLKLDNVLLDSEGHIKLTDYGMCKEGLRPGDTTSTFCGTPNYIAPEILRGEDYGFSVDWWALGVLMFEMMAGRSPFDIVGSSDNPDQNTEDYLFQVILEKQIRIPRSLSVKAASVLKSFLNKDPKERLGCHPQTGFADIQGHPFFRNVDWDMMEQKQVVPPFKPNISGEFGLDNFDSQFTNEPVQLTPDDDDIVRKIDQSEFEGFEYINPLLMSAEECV
Data set [21] concerns the target Serine/threonine-protein kinase PLK1 (Homo sapiens) (UniProt P53350). Nature of the data set: Inhibition of recombinant full-length human Plk1 at 1 uM using casein as substrate after 40 mins in presence of [gamma-33P]ATP by scintillation counting method.
For data set [22], the target named is Receptor-interacting serine/threonine-protein kinase 1 (Homo sapiens) (UniProt Q13546). Nature of the data set: Inhibition of recombinant human RIPK1 (8 to 322 residues) at 1 uM using myelin basic protein as substrate after 120 mins in presence of [gamma-33P]ATP by scintillation counting method.
In data set [23] the target is Proto-oncogene tyrosine-protein kinase Src (Homo sapiens) (UniProt P12931). Briefly: Inhibition of recombinant human Src (1 to 530 residues) at 1 uM using GGEEEEYFELVKKKK as substrate after 40 mins in presence of [gamma-33P]ATP by scintillation counting method.
Chain of Proto-oncogene tyrosine-protein kinase Src (Homo sapiens) (P12931 2-536 limits assumed): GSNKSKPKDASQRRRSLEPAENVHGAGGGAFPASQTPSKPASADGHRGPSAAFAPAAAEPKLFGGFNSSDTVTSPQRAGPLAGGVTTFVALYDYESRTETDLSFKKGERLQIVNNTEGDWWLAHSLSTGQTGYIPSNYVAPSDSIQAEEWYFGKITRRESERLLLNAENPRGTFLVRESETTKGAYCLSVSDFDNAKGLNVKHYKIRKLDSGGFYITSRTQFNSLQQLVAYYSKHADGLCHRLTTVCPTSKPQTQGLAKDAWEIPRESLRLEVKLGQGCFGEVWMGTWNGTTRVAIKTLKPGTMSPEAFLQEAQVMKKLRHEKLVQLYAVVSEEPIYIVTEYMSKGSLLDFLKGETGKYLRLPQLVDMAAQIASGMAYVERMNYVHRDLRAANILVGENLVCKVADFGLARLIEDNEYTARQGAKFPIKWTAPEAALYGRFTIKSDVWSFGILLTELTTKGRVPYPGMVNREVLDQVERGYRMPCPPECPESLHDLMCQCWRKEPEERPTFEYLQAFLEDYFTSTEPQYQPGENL
Data set [24] concerns the target Tyrosine-protein kinase TXK (Homo sapiens) (UniProt P42681). Briefly: Inhibition of recombinant human Txk (256 to end residues) at 1 uM using GEEPLYWSFPAKKK as substrate after 40 mins in presence of [gamma-33P]ATP by scintillation counting method.

The structures appear in SMILES notation.

As usually defined, the half-life is the time needed for the level to fall by half in the phase considered. A lower half-life goes with rapid decline. Broadly, the inhibition is the change of the read-out against control, counted positive when it falls.

Chain of Serine/threonine-protein kinase PAK 3 (Homo sapiens) (O75914 whole entry, looked up): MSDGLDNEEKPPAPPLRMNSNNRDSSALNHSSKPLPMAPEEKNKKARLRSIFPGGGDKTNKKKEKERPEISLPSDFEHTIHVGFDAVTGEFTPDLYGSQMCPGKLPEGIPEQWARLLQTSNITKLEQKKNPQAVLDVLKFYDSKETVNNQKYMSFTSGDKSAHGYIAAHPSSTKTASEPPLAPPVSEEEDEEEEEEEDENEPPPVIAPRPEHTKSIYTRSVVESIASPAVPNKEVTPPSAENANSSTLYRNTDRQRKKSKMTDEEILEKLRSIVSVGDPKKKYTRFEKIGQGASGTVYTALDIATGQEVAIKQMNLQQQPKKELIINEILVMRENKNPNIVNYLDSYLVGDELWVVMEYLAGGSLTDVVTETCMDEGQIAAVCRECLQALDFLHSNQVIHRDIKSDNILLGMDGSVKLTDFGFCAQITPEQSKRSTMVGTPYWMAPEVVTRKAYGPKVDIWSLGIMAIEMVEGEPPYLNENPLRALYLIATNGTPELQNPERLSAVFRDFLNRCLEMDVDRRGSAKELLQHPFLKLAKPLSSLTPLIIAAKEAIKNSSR
Chain of Serine/threonine-protein kinase BRSK1 (Homo sapiens) (Q8TDC3 whole entry, the tested form may be a part): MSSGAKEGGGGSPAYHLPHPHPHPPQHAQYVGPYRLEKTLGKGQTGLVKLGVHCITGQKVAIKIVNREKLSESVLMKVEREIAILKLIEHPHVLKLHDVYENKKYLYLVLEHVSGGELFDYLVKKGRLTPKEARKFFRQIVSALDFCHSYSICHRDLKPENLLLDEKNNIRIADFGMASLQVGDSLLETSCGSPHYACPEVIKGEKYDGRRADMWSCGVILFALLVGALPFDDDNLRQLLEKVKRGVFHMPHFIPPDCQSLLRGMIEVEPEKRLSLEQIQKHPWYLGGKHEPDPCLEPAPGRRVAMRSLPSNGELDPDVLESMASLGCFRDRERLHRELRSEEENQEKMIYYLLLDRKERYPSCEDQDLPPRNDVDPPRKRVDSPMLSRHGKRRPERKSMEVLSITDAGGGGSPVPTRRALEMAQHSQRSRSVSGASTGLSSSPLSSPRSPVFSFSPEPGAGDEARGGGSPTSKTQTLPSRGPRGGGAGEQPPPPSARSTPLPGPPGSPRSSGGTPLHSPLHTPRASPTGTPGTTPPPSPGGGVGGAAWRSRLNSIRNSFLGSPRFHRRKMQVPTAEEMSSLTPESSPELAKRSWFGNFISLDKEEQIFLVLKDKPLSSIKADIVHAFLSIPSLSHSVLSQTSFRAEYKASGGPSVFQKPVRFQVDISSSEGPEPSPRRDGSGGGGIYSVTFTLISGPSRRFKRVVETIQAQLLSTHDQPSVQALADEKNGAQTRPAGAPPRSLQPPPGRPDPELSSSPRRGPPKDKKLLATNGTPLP

On to `CS(=O)(=O)c1ccc(-n2nc(-c3cnc4[nH]ccc4c3)c3c(N)ncnc32)cc1`, for which the half-life in data set [1] is 2.28 h. The inhibition in data set [2] was 0%; in [3], 13%; in [4] it was 6%; in data set [5], -5%; in data set [6], -6%; in [7] it was 4%. Besides, the inhibition is -2% in data set [8]; -6% in data set [9]; -10% in data set [10]; 7% in data set [11]; 6% in data set [12]; 1% in data set [13]. Besides, the inhibition in data set [14] is -4%; in data set [15], -7%; in [16], 3%; in [17], 4%; in [18], 66%; in data set [19], -7%. For the same molecule, the inhibition in [20] was 5%; in data set [21], -1%; in [22] it was 18%; in [23] it was 64%; in data set [24], 78%.

Values taken from ChEMBL document CHEMBL4190187, “Discovery of pyrazolopyrimidine derivatives as novel inhibitors of ataxia telangiectasia and rad3 related protein (ATR)” (Bioorg Med Chem Lett, 2017).
